This note sets out measurements from patent publication US8114904B2, “Luminescence quenchers and fluorogenic probes for detection of reactive species” (Versitech Limited & Morningside Ventures Limited, priority 2008, dated 2012).

Data set [1] can be described thus: Comparison of specificity with different ROS and RNS. The note with it: for fluorescence enhancement by peroxynitrite compared with any other ROS and RNS: 25° C. The procedure:
The reactivity of Compound 10 was compared toward different reactive oxygen species (ROS) and reactive nitrogen species (RNS), including OCl^−, H2O2, ^1O2, NO, O2^•−, ^•OH, ONOO^− and alkylperoxyl radical (ROO^•). Different reactive oxygen species and reactive nitrogen species were added independently to 5 mL of the solution of Compound 10 (10 μM in 0.1 M potassium phosphate buffer). The changes of fluorescence intensity before and after the treatment were measured. The reactive oxygen species and reactive nitrogen species were prepared as follows. • a. H2O2 (final 100 μM) was added and then stirred for 1 hour at 25° C. • b. (3-(1,4-Dihydro-1,4-epidioxy-1-naphthyl)propionic acid) (final 100 μM) was added and then stirred at 25° C. for 1 hour. • c. 2,2′-Azobis(2-amidinopropane)dihydrochloride (final 100 μM) was added and then stirred at 25° C. for 1 hour. • d. SNP (Sodium Nitroferricyanide (III) Dihydrate) (final 100 μM) was added and then stirred for 1 hour at 25° C. • e. O2^•− was generated by xanthine and xanthine oxidase. Xanthine oxidase was added firstly. After xanthine oxidase was dissolved, xanthine (final 100 μM) was added and the mixtures were stirred at 25° C. for 1 hour. • f. Ferrous chloride (final 10 μM) was added in the presence of 10 equivalences of H2O2 (100 μM). • g. ONOO^− (final 10 μM) was added at 25° C. • h. NaOCl (final 10 μM) was added at 25° C. Commercial bleach was the source of NaOCl.
The reactivity of Compound 12 was compared toward different reactive oxygen species (ROS) and reactive nitrogen species (RNS), including OCl^−, H2O2, ^1O2, NO, O2^•−, ^•OH, ONOO^− and alkylperoxyl radical (ROO^•). Different reactive oxygen species and reactive nitrogen species were added independently to 5 mL of the solution of Compound 12 (1 μM in 0.1 M potassium phosphate buffer). The changes of fluorescence intensity before and after the treatment were measured. The reactive oxygen species and reactive nitrogen species were prepared as follows: • i. H2O2 (final 100 μM) was added and then stirred for 1 hour at 25° C. • j. (3-(1,4-Dihydro-1,4-epidioxy-1-naphthyl)propionic acid) (final 100 μM) was added and then stirred at 25° C. for 1 hour. • k. 2,2′-Azobis(2-amidinopropane)dihydrochloride (final 100 μM) was added and then stirred at 25° C. for 1 hour. • l. SNP (Sodium Nitroferricyanide (III) Dihydrate) (final 100 μM) was added and then stirred for 1 hour at 25° C. • m. O2^•− was generated by xanthine and xanthine oxidase. Xanthine oxidase was added firstly. After xanthine oxidase was dissolved, xanthine (final 100 μM) was added and the mixtures were stirred at 25° C. for 1 hour. • n. Ferrous chloride (final 10 μM) was added in the presence of 10 equivalences of H2O2 (100 μM). • o. ONOO^− (final 10 μM) was added at 25° C. • p. NaOCl (final 10 μM) was added at 25° C. Commercial bleach was the source of NaOCl.
The reactivity of Compound 14 was compared toward different reactive oxygen species (ROS) and reactive nitrogen species (RNS), including OCl^−, H2O2, ^1O2, NO, O2^•−, ^•OH, ONOO^− and alkylperoxyl radical (ROO^•). Different reactive oxygen species and reactive nitrogen species were added independently to 5 mL of the corresponding solution of Compound 14 (1 μM in 0.1 M potassium phosphate buffer). The changes in fluorescence intensity before and after the treatment were measured. The reactive oxygen species and reactive nitrogen species were prepared as follows: • a. H2O2 (final 100 μM) was added and then stirred for 1 hour at 25° C. • b. (3-(1,4-Dihydro-1,4-epidioxy-1-naphthyl)propionic acid) (final 100 μM) was added and then stirred at 25° C. for 1 hour. • c. 2,2′-Azobis(2-amidinopropane)dihydrochloride (final 100 μM) was added and then stirred at 25° C. for 1 hour. • d. SNP (Sodium Nitroferricyanide (III) Dihydrate) (final 100 μM) was added and then stirred for 1 hour at 25° C. • e. O2^•− was generated by xanthine and xanthine oxidase. Xanthine oxidase was added firstly. […]

Data set [2] in a line: UV-visible absorption spectrum. The note with it: pH 7.4 0.1 M phosphate buffer, 0.1% DMF. Type of data set: physicochemical. Here is the method:
Compound 10 obtained in Example 4 was dissolved in pH 7.4 0.1 M phosphate buffer containing 0.1% DMF as cosolvent to form a 10 μM solution.
Compound 12 obtained in Example 5 was dissolved in pH 7.4 0.1 M phosphate buffer containing 0.1% DMF as cosolvent to form a 1 μM solution.
Compound 14 obtained in Example 6 was dissolved in pH 7.4 0.1 M phosphate buffer containing 0.1% DMF as cosolvent to form a 1 μM solution.
Compound 30 obtained in Example 7 was dissolved in pH 7.4 0.1 M phosphate buffer containing 0.1% DMF as cosolvent to form a 10 μM solution. The absorption spectrum of the 10 μM solution of Compound 30 was measured.

Where [3] appears, read: 10 μM probe in 0.1 M potassium phosphate buffer.
The mark [4] stands for this setting: 1 μM probe in 0.1 M potassium phosphate buffer.

SMILES strings stand for the structures.

For the molecule `CN(c1ccc(CCC(=O)C(F)(F)F)cc1)c1cc2c(cc1Cl)C1(OC(=O)c3ccccc31)c1cc(Cl)c(O)cc1O2` (stereo not drawn) [Compound 10], in data set [1] (setting [3]), the “reactivity among ROS and RNS in an abiotic system” value was “much higher reactivity towards peroxynitrite”; the “fluorescence enhancement by peroxynitrite compared with any other ROS and RNS” value is “much stronger fluorescence enhancement”. Moreover, the absorption maximum result in data set [2] (10 μM solution) was “about 520 nm”.
As for `CN(c1ccc(O)cc1)c1ccc2c(c1)Oc1cc(O)ccc1C21OC(=O)c2ccccc21` (stereo not drawn) [Compound 12], in data set [1] (setting [4]), the “reactivity among ROS and RNS in an abiotic system” value is reported as “much higher reactivity towards peroxynitrite”; the “fluorescence enhancement by peroxynitrite compared with any other ROS and RNS” value is recorded as “much stronger fluorescence enhancement”. Also, the absorption maximum entry in data set [2] (1 μM solution) is listed as “about 515 nm”.
